≈ marks a conversion by molar mass, not a printed value. Like-named read-outs stand apart in the source and are kept apart here.
What was measured:
Escherichia coli (E.c) = assay: MIC, broth two-fold serial dilution (Table 3), E.c; type: cell-based; details: read-out: MIC E.c
From the text: (§1) A minimum inhibitory concentration (MIC) value is obtained using a broth, two-fold serial dilution test performed as follows: A stock solution or dispersion of the test compound, typically at a concentration of 1%, is made in a 5:3:2 solvent solution of acetone, methanol, and water. A volume of the stock solution is dispensed into culture media to give an initial starting test concentration of 500 ppm compound.
(§2) When the test is ready to be done, each vessel in the dilution series, except the first vessel, contains an equal volume of compound free broth. The first vessel contains twice the volume of broth with the starting concentration of test compound. One half of the broth from the first vessel is transferred to the second vessel. After being mixed, one half the resulting volume is removed from the second vessel and transferred to the third vessel. The entire cycle is repeated sufficiently to give a series of concentrations amounting to 500, 250, 125, 63, 31, 16, 8, and 4 ppm, respectively.
(§3) Each vessel is then inoculated with a cell suspension of the appropriate test organism. Bacteria are grown in broth and fungi on agar slants for a time and at a temperature appropriate to the species being tested. At the end of the growth period, the broth is vortexed to disperse the cells. In the case of fungi, the spores are harvested by pipetting water onto the slant and dislodging the spores with a sterile loop. The cell/spore suspension is standardized by controlling incubation time, temperature, and the volume of the diluent. The suspension is then used to inoculate the vessels containing the broth compound. The vessels are then incubated at the appropriate temperature. After the incubation, the vessels are examined for growth/no growth. The minimum inhibitory concentration (MIC) is defined as the lowest concentration of compound that results in complete inhibition of growth of the test organism.
Escherichia coli (E.c), gram negative

Aspergillus niger (A.n) = assay: MIC, broth two-fold serial dilution (Table 3), A.n; type: cell-based; details: read-out: MIC A.n
From the text: as §1, §2, §3

[1] = test system: Puccinia graminis (f. sp. tritici Race 15B-2); assay: whole plant or invertebrate; type: in vivo; details: 336 h, read-out: % control WSR
Piricularia oryzae = assay: whole plant or invertebrate; type: in vivo
ps.fl bacteria = assay: Speed of Kill (SOK) test, 4 h, synthetic hard water (Table 3); type: cell-based; details: Pseudomonas fluorescens, read-out: SOK (concentration at which compound killed >99.999% of the cells)
From the text: The Speed of Kill (SOK) Test measures the loss of cell viability in an aqueous suspension of bacterial cells during a four hour period when these cells are contacted with a defined concentration of the test compound in synthetic hard water (SHW). A stock solution or dispersion of the test compound, typically at a concentration of 1%, is made in a 5:3:2 solvent solution of acetone, methanol, and water. The SHW is made by taking one liter of sterile deionized water and adding the following solutions to it:
1. 2 ml of a solution of 31.74 g of MgCl2 and 73.99 g of CaCl2 in 1000 ml of sterile distilled water which has been heat sterillized.
2. 4 ml of a solution of 56.03 g of NaHCO3 in 1000 ml of water which has been filter sterillized.
The combined solution is then filter sterilized to yield the SHW. A volume of the stock solution is dispensed into the SHW to give an initial test compound starting concentration of 500 ppm.
as §2, with “run,” for “done,”, “the SHW mixture with the test compound.” for “compound free broth.”, “SHW” for “broth”
Each vessel is then inoculated with a cell suspension of the ps.fl bacteria. The bacteria were grown on a 1% agar slant tube and incubated for 18-24 hours at 30° C. Thereafter, the tube is washed with four ml of sterile water. This was is diluted to a density of 60 to 80 Nephlolmeter Turbidity Units (NTU). To 100 ml of the SHW containing the various concentrations of the test compound is added 0.75 ml of inoculum from the 60-80 NTU wash with good mixing. After 4 hours from the time of addition at 30° C., 5 μl of solution is transferred to 100 μl of a broth solution in order to recover any living cells. This mixture is incubated for 24 hours at 30° C. before noting the concentration in ppm at which each compound killed >99.999% of the cells in the SHW solution.

[2] = test system: Erysiphe graminis (f. sp. tritici); assay: whole plant or invertebrate; type: in vivo
[3] = test system: Pseudomonas fluorescens (Ps.fl); assay: MIC, broth two-fold serial dilution (Table 3), Ps.fl; type: cell-based; details: read-out: MIC Ps.fl
From the text: as §1, §2, §3
Pseudomonas fluorescens (Ps.fl), gram negative

[4] = test system: Pseudoperonospora cubensis; assay: whole plant or invertebrate; type: in vivo
[5] = test system: Aureobasidium pullulans (A.p); assay: MIC, broth two-fold serial dilution (Table 3), A.p; type: cell-based; details: read-out: MIC A.p
From the text: as §1, §2, §3
Aureobasidium pullulans (A.p)

A.n = assay: Minimum Inhibitory Concentration Test, alternate (Table 4), A.n; type: cell-based, Aspergillus niger; details: TSB, 72 hours; for MIC: Aspergillus niger
How it was run: (§4)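 Compound in acetone was diluted into TSB and serially diluted 1:1 from 250 ppm down to 0.8 ppm, in duplicate. Plates were inoculated with diluted 24 h culture and incubated 3 days at 30° C; MIC recorded as lowest concentration with no growth.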

[6] = test system: Pseudomonas aerugenosa (Ps.ae); assay: MIC, broth two-fold serial dilution (Table 3), Ps.ae; type: cell-based; details: read-out: MIC Ps.ae
From the text: as §1, §2, §3
Pseudomonas aerugenosa (Ps.ae), gram negative

[7] = test system: Staphylococcus aureus (S.a); assay: MIC, broth two-fold serial dilution (Table 3), S.a; type: cell-based; details: read-out: MIC S.a
From the text: as §1, §2, §3
Staphylococcus aureus (S.a), gram positive

Phytophthora infestans = assay: whole plant or invertebrate; type: in vivo; details: for pest or weed control at 200 ppm / pest or weed control at 300 ppm / pest or weed control at 100 ppm: Phytophthora infestans, in Solanum lycopersicum, 96 h, read-out: % control TLB
Pseudomonas fluorescens [8] = assay: Minimum Inhibitory Concentration Test, alternate (Table 4), Ps.fl; type: cell-based; details: TSB, 72 hours, 30° C; for MIC: Pseudomonas fluorescens
How it was run: as §4

[9] = test system: Pellicularia filamentosa (f. sp. sasiki); assay: whole plant or invertebrate; type: in vivo
[10] = test system: Puccinia recondita (f. sp. tritici Races PKB and PLD); assay: whole plant or invertebrate; type: in vivo
Pseudomonas fluorescens [11] = assay: Speed of Kill Test, alternate, 24 h, synthetic hard water (Table 4); type: cell-based; details: Ps.fl in synthetic hard water, 100 ppm
[12] = Table 3, broth two-fold serial dilution
[13] = Pyricularia oryzae, read-out: % control RB
[14] = Table 3, Ps.fl in synthetic hard water, 4 hours, 30° C
[15] = Blumeria graminis, read-out: % control WPM
[16] = Pseudoperonospora cubensis, in Cucumis sativus, 168 h, read-out: % control CDM
[17] = Puccinia recondita, 240 h, read-out: % control WLR

| Compound | MIC (Escherichia coli (E.c); [12]) [µg/mL] | MIC (Aspergillus niger (A.n)) [µg/mL] | pest or weed control at 200 ppm (Piricularia oryzae; [13]) [%] | MBC (ps.fl bacteria; [14]) [µg/mL] | pest or weed control at 300 ppm [2, 15] [%] | MIC [3, 12] [µg/mL] | pest or weed control at 200 ppm [4, 16] [%] | MIC [5, 12] [µg/mL] | MIC (A.n) [µg/mL] | MIC [6] [µg/mL] | MIC [7, 12] [µg/mL] | MIC (Pseudomonas fluorescens [8]) [µg/mL] | also measured |
| --- | --- | --- | --- | --- | --- | --- | --- | --- | --- | --- | --- | --- | --- |
| CCCCCCCCNC(=O)/C=C\SC(C(C)=O)C(C)=O [Example 1, N-n-octyl-cis-3-[3-(2,4-pentanedionyl)thio]acrylamide] | > 500 | 8 (≈ 25.5 µM) | 98 | > 500 | 25 | > 500 | 100 | < 4 | > 500 | < 4 | < 4 | > 500 | pest or weed control at 100 ppm [1]: 50%; pest or weed control at 200 ppm (Phytophthora infestans): 100% |
| CCCCCCCCNC(=O)/C(Cl)=C(/Cl)SC(C(C)=O)C(C)=O [Example 2, N-n-octyl-2,3-dichloro-cis-3-[3-(2,4-pentanedionyl)thio]acrylamide] | > 500 | 8 (≈ 20.9 µM) |  | > 500 | 78 | > 500 |  | < 4 | > 500 | < 4 | < 4 | > 500 | pest or weed control at 150 ppm [1]: 85%; pest or weed control at 300 ppm (Piricularia oryzae; [13]): 0%; pest or weed control at 300 ppm ([9]; 120 h, read-out: % control RSB): 0%; pest or weed control at 300 ppm [4, 16]: 85%; pest or weed control at 300 ppm (Phytophthora infestans): 10% |
| CC(=O)C(S/C(Cl)=C(/Cl)C(=O)NC1CCCCC1)C(C)=O [Example 6, N-cyclohexyl-2,3-dichloro-cis-3-[3-(2,4-pentanedionyl)thio]acrylamide] | 500 (≈ 1420 µM) | 125 (≈ 355 µM) | 70 | > 500 | 0 | > 500 | 85 | < 4 | > 500 | 32 (≈ 90.8 µM) | 16 (≈ 45.4 µM) | > 500 | pest or weed control at 300 ppm [1]: 0%; pest or weed control at 200 ppm ([9]; 120 h, read-out: % control RSB): 0%; pest or weed control at 300 ppm (Phytophthora infestans): 0% |
| CCCCCCCCNC(=O)/C=C\SC(C(=O)NCCCCCCCC)C(=O)OCC (stereo not drawn) [Example 18, N-n-octyl-cis-3-[2-(ethyl-N-n-octylmalonamido)thio]acrylamide] |  | < 4 | 25 |  |  |  | 97 |  | > 500 | > 500 |  | > 500 | MIC (Escherichia coli (E.c)): 250 µg/mL (≈ 547 µM); MBC (ps.fl bacteria; 4 h): 16 µg/mL (≈ 35 µM); pest or weed control at 300 ppm ([9]; 120 h, read-out: % control RSB): 90%; pest or weed control at 200 ppm [2, 15]: 0%; MIC [3]: < 4 µg/mL; pest or weed control at 200 ppm [10, 17]: 74%; MIC [5]: < 4 µg/mL; MIC [7]: 8 µg/mL (≈ 17.5 µM); pest or weed control at 200 ppm (Phytophthora infestans): 92% |
| CCCCCCCCNC(=O)/C=C\SC(C(=O)Nc1cc(C)ccc1Cl)C(=O)OCC (stereo not drawn) [Example 42, N-n-octyl-cis-3-{2-[ethyl-N-(2-chloro-5-methylphenyl)malonamido]thio}acrylamide] | 500 (≈ 1070 µM) | < 4 |  | 125 (≈ 266 µM) |  | 8 (≈ 17.1 µM) |  | 16 (≈ 34.1 µM) |  | > 500 | 8 (≈ 17.1 µM) |  | pest or weed control at 100 ppm (Phytophthora infestans): 91% |
| CCCCCCCCNC(=O)/C=C\SC(C(=O)NCc1cccnc1)C(=O)OCC (stereo not drawn) [Example 49, N-n-octyl-cis-3-{2-[ethyl-N-((3-pyridyl)methyl)malonamido]thio}acrylamide] | > 500 | < 4 |  | > 500 |  | > 500 |  | < 4 |  | < 4 | < 4 |  | pest or weed control at 100 ppm (Piricularia oryzae; [13]): 0%; pest or weed control at 100 ppm ([9]; 120 h, read-out: % control RSB): 0%; pest or weed control at 100 ppm [2, 15]: 50%; pest or weed control at 100 ppm [10, 17]: 0%; pest or weed control at 100 ppm [4, 16]: 85%; pest or weed control at 100 ppm (Phytophthora infestans): 90% |
| CCCCCCCCNC(=O)/C=C\SC(C(=O)OCC)C(=O)c1ccccc1 (stereo not drawn) [Example 69, N-n-octyl-cis-3-[2-(ethoxy-3-phenyl-3-oxopropanoyl)thio]acrylamide] |  | 125 (≈ 308 µM) |  |  |  |  |  |  |  | 32 (≈ 78.9 µM) |  |  | MIC (Escherichia coli (E.c)): 500 µg/mL (≈ 1230 µM); MBC (ps.fl bacteria; 4 h): > 500 µg/mL; MIC [3]: > 500 µg/mL; MIC [5]: < 4 µg/mL; MIC [7]: 16 µg/mL (≈ 39.5 µM) |
| N-n-octyl-cis-3-[2-(N-benzyl-N'-n-octylmalonodiamido)thio]acrylamide [Example 61] |  |  |  |  |  |  |  |  |  |  |  |  | SOK (Pseudomonas fluorescens [11]): > 100 ppm; % control RB (Piricularia oryzae; in vivo): 0%; % control RSB ([9]; in vivo): 0%; % control WPM ([2]; in vivo): 0%; % control WLR ([10]; in vivo): 0%; % control CDM ([4]; in vivo): 99%; MIC A.n (A.n): > 250 ppm; % control TLB (Phytophthora infestans; 100 ppm application rate): 0%; MIC Ps.fl (Pseudomonas fluorescens [8]): > 250 ppm |

Reference: patent US5118681A (priority 1989, dated 1992)
